{
  "source": "patent US10683273B2",
  "about": "“Compounds as DNA probes, methods and applications thereof” (JAWAHARLAL NEHRU CENTRE FOR ADVANCED SCIENTIFIC RESEARCH, priority 2015, dated 2020)",
  "key": {"[1]": {"tested_on": "MCF-7 cells", "experiment": "Fluorescence study in live cells", "type": "cell-based", "conditions": "live MCF-7 cells, 0.5 and 1 μM, 60 min", "experimental": "MCF-7 cells are propagated on 20 mm cover slips in a 6-well plate in DMEM medium supplemented with 10% fetal bovine serum at about 37° C. in a humidified atmosphere containing 5% CO2 till 80% confluency is achieved. Cells are incubated for about 60 min with probe QCy-DT (resuspended in Mili-Q water) at various concentrations (0.5 μM and 1 μM) in a humidified CO2 incubator at about 37° C. Milli-Q water is used as a vehicle control. Following the treatment, fluorescence microscopy is performed using Carl Zeiss AXIO Imager Z1 and the software used for image capturing is AxioVision Rel. 4.8.\n(§1) In order to check its permeability, cellular uptake studies are carried out in live and fixed conditions of MCF-7 and HeLa cells, respectively. First, MCF-7 cells are incubated with probe QCy-DT (0.5 and 1 μM) without fixing, and live cell imaging is conducted using Carl Zeiss fluorescence microscope as described above. […] Next, HeLa cells are fixed and incubated with QCy-DT (0.5 and 1 μM) along with Hoechst as the control nuclear staining dye. […] Therefore, staining results obtained with live and fixed cells confirmed high cell permeability, efficiency (low staining concentration of 1 μM), and preferential targeting of cell nuclear DNA."}, "[2]": {"tested_on": "HeLa cells", "experiment": "Fluorescence study in fixed cells", "type": "cell-based", "conditions": "0.5 and 1 μM, Hoechst as control", "experimental": "HeLa cells are grown on the cover slip for about 24 hours in DMEM medium supplemented with 10% fetal bovine serum at about 37° C. in a humidified atmosphere containing 5% CO2 till 80% confluency is achieved. Then cells are fixed with 4% paraformaldehyde in PBS for 10 min. After rinsing twice with PBS, HeLa cells are treated separately with probe QCy-DT at various concentrations (0.5 μM and 1 μM) for 10 min at room temperature. Subsequently, cover slips are incubated with Hoechst 33258 at 10 μg/mL for nuclear staining. Fluorescence images are taken by Carl Zeiss Laser Scanning Microscope (LSM510 META).\nas §1"}, "[3]": {"tested_on": "d(ATAT)5", "experiment": "Switch-on NIR-fluorescence enhancement with DNA", "type": "binding", "experimental": "All the chemicals, reagents, single-stranded oligos (dA20, dT20, dG20, dC20), self-complementary oligos {d(ATAT)5, (D1)mix, Drew-AT, Calf-Thymus DNA (CT-DNA), (DM1, DM2, DM3, DM4, DM5, DM6 and DM7)}, RNA, were purchased from Sigma-Aldrich. ^1H and ^13C NMR spectra were recorded on a Bruker AV-400 MHz spectrometer with chemical shifts reported as parts per million (ppm) (in DMSO-d6, tetramethylsilane as an internal standard) at 20° C. UV-vis absorption and emission spectra were measured in quartz cuvettes of 1 cm path length. High resolution mass spectra (HRMS) were obtained on Agilent Technologies 6538 UHD Accurate-Mass Q-TOF LC/MS spectrometer. All biophysical studies (UV-vis, fluorescence and Cirular dichroism) are carried out at the concentration 0-5 μM of probe, volume=500 μL, temperature=25° C. and time of incubation=2 minutes. […]\nThe UV-vis absorption and emission spectra are recorded on Agilent Technologies Cary series UV-vis-NIR absorbance and Cary eclipse fluorescence spectrophotometers, respectively. […] Absorption is monitored at 260 nm with regular 5° C. intervals. Melting temperatures (Tm) of DNA samples are calculated from the first derivatives of the absorption vs. temperature curves (thermal denaturation or melting curves) obtained by monitoring at 260 nm. […]"}, "[4]": {"tested_on": "(D1)mix", "experiment": "UV-melting (UV-Tm) of DNA duplex with probe", "type": "binding", "conditions": "(D1)mix with QCy-DT vs duplex alone", "experimental": "(§2) The UV-vis absorption and emission spectra are recorded on Agilent Technologies Cary series UV-vis-NIR absorbance and Cary eclipse fluorescence spectrophotometers, respectively. Thermal denaturation (UV-melting) studies are carried out on Cary 5000 UV-vis-NIR spectrophotometer equipped with Cary temperature controller in the range of 10° C. to 90° C. with a ramp rate of 1° C./min. The variable temperature/wavelength mode is used. Absorption is monitored at 260 nm with regular 5° C. intervals. Melting temperatures (Tm) of DNA samples are calculated from the first derivatives of the absorption vs. temperature curves (thermal denaturation or melting curves) obtained by monitoring at 260 nm.\n(§3) To understand the effect of QCy-DT binding to DNA on the thermal stability of DNA, temperature-dependent UV-melting studies (UV-Tm) is performed on different [QCy-DT+DNA] complexes. […] Therefore, the binding affinity, fluorescence quantum yield, and UV-Tm data validated the preferential recognition of AT-rich DNA by QCy-DT probe compared to GC-rich DNA."}, "[5]": {"tested_on": "Drew AT", "experiment": "UV-melting (UV-Tm) of DNA duplex with probe", "type": "binding", "conditions": "Drew AT with QCy-DT vs duplex alone", "experimental": "as §2, §3"}, "[6]": {"tested_on": "(A-T)20", "experiment": "UV-melting (UV-Tm) of DNA duplex with probe", "type": "binding", "conditions": "(A-T)20 with QCy-DT vs duplex alone", "experimental": "as §2, §3"}, "[7]": {"tested_on": "d(ATAT)5", "experiment": "UV-melting (UV-Tm) of DNA duplex with probe", "type": "binding", "conditions": "d(ATAT)5 with QCy-DT vs duplex alone", "experimental": "as §2, §3"}},
  "data": [
    {"smiles": "C[n+]1c(/C=C/c2ccc(O)c(/C=C/c3sc4ccccc4[n+]3C)c2)sc2ccccc21", "note": "[QCy-DT, quinone cyanine-dithiazole]", "values": [
      {"measurement": "cellular uptake / nuclear staining", "setting": "[1]", "result": "selective staining of the cell nucleus"},
      {"measurement": "nuclear staining", "setting": "[2]", "result": "selective staining of the cell nucleus, and remarkable co-localization with Hoechst dye"},
      {"measurement": "fluorescence enhancement", "setting": "[3]", "result": "~54", "unit": "fold"},
      {"measurement": "ΔTm", "setting": "[4]", "result": 2.5, "unit": "°C"},
      {"measurement": "ΔTm", "setting": "[5]", "result": 4.2, "unit": "°C"},
      {"measurement": "ΔTm", "setting": "[6]", "result": 6.2, "unit": "°C"},
      {"measurement": "ΔTm", "setting": "[7]", "result": 3.5, "unit": "°C"}
    ]}
  ]
}
